# Laboratory results: patent publication US8912128B2 (priority 2012, dated 2014)
# Where “and” joins values, the source holds several entries; their conditions need not be identical. Equal entries are not always repeated.
# Tests used:
# [1] = biological target: whole cholera toxin (ctxAB5) (Vibrio cholerae serotype O1, UniProt P01556); assay type: binding
# [2] = biological target: cholera toxin secreted from Vibrio cholerae culture (Vibrio cholerae serotype O1, UniProt P01556)
# Chain of cholera toxin secreted from Vibrio cholerae culture (P01556 whole entry, looked up): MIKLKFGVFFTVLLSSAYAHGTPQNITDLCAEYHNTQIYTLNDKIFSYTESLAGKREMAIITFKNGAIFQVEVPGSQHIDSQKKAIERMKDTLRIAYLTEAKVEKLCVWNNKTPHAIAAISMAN
# Chain of whole cholera toxin (ctxAB5) (P01556 whole entry, looked up): as above
Substance,visual limit of detection (LOD) of cholera toxin [1],fluorescence signal with Vibrio cholerae culture [2],coefficient of determination of linear relation between fluorescence intensity and whole cholera toxin concentration [1],limit of detection (LOD) of cholera toxin determined from the dose-response curve [1],whole cholera toxin concentration at which fluorescence intensity was saturated [1] [µg/mL]
GM2 tetrasaccharide,750 ng/mL,high fluorescence intensity,–,–,–
GM1 pentasaccharide,5 ng/mL and 57.5 pM,high fluorescence intensity,0.9935,2 ng/mL and 23 pM,≥ 1
asialo GM1 tetrasaccharide,1000 ng/mL,–,–,–,–
